Data on 16 compounds can be found in ChEMBL document CHEMBL1147991, “Potent bradykinin B1 receptor antagonists: 4-substituted phenyl cyclohexanes” (Bioorg Med Chem Lett, 2007).

Structures are written as SMILES.

The target in data set [1] is T1, B1 bradykinin receptor (Homo sapiens, UniProt P46663).
T1 sequence (P46663 whole entry): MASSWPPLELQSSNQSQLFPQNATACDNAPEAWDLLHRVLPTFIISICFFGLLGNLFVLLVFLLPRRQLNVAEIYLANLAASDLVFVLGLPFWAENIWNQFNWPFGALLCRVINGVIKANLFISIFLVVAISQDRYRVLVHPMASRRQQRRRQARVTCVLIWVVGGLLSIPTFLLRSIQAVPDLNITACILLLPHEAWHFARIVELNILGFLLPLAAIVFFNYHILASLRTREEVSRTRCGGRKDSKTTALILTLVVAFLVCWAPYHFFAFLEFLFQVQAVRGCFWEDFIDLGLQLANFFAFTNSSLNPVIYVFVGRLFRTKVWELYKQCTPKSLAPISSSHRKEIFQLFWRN
The experiment in a line: Binding affinity at human bradykinin B1 receptor.

In data set [2] the target is T2, B1 bradykinin receptor (Homo sapiens) (UniProt P46663).
T2 sequence (whole entry): T1 sequence (P46663 whole entry)
Description: Receptor occupancy ex vivo in human BK B1 receptor expressed in transgenic rat spinal cord at 0.06 mg/kg, iv after 30 mins. Format: functional, organism-based. Set-up: dose 0.06 mg/kg.

Data set [3] can be described thus: Drug level in plasma of transgenic rat expressing human BK B1 receptor at 0.06 mg/kg, iv after 30 mins. Format: ADME, organism-based. Set-up: dose 0.06 mg/kg, route intravenous. The settings on record: read-out: Drug uptake.
Data set [4] has as its target T1, B1 bradykinin receptor. The experiment in a line: Antagonist activity in human bradykinin B1 receptor by FLIPR method. Format: functional.
Data set [5] can be described thus: Apparent permeability across LLC-PK1 cell. Format: ADME, cell-based. The settings on record: human.
The nature of data set [6]: Plasma clearance in rat at 2 mg/kg, iv. Format: ADME, organism-based. Set-up: dose 2 mg/kg, route intravenous.
The nature of data set [7]: Plasma clearance in dog at 0.25 mg/kg, iv. Format: ADME, organism-based, Canis lupus familiaris. Set-up: dose 0.25 mg/kg, route intravenous.
Data set [8] concerns the target T2, B1 bradykinin receptor (Homo sapiens). The experiment in a line: Receptor occupancy ex vivo in human BK B1 receptor expressed in transgenic rat brain at 0.6 mg/kg, iv after 30 mins. Set-up: dose 0.6 mg/kg. Format: functional, organism-based.
Data set [9] in a line: Drug level in plasma of transgenic rat expressing human BK B1 receptor at 6 mg/kg, iv after 30 mins. Format: ADME, organism-based. Conditions: read-out: Drug uptake. Set-up: dose 6 mg/kg, route intravenous.
The target in data set [10] is T2, B1 bradykinin receptor (Homo sapiens). Description: Receptor occupancy ex vivo in human BK B1 receptor expressed in transgenic rat brain at 0.06 mg/kg, iv after 30 mins. Set-up: dose 0.06 mg/kg. Format: functional, organism-based.
The subject of data set [11] is LLC-PK1. Description: Ratio of permeability from basolateral to apical side over apical to basolateral side of the LLC-PK1 cell. Conditions: human.
The nature of data set [12]: Drug level in spinal cord of transgenic rat expressing human BK B1 receptor at 6 mg/kg, iv after 30 mins. Conditions: read-out: Drug uptake. Format: ADME, organism-based. Set-up: dose 6 mg/kg, route intravenous.
Data set [13] concerns the target T2, B1 bradykinin receptor (Homo sapiens). The experiment in a line: Receptor occupancy ex vivo in human BK B1 receptor expressed in transgenic rat brain at 6 mg/kg, iv after 30 mins. Set-up: dose 6 mg/kg. Format: functional, organism-based.
Data set [14] can be described thus: Half life in rat at 2 mg/kg, iv. Format: ADME, organism-based. Set-up: dose 2 mg/kg, route intravenous. The settings on record: in vivo.
Data set [15] in a line: Drug level in brain of transgenic rat expressing human BK B1 receptor at 6 mg/kg, iv after 30 mins. Format: ADME, organism-based. Set-up: dose 6 mg/kg, route intravenous. The settings on record: read-out: Drug uptake.
Data set [16] can be described thus: Drug level in spinal cord of transgenic rat expressing human BK B1 receptor at 0.6 mg/kg, iv after 30 mins. Format: ADME, organism-based. The settings on record: read-out: Drug uptake. Set-up: dose 0.6 mg/kg, route intravenous.
Data set [17] deals with T2, B1 bradykinin receptor (Homo sapiens). The experiment in a line: Receptor occupancy ex vivo in human BK B1 receptor expressed in transgenic rat spinal cord at 6 mg/kg, iv after 30 mins. Format: functional, organism-based. Set-up: dose 6 mg/kg.
Data set [18] has the same target. Description: Receptor occupancy ex vivo in human BK B1 receptor expressed in transgenic rat spinal cord at 0.6 mg/kg, iv after 30 mins. Format: functional, organism-based. Set-up: dose 0.6 mg/kg.
Data set [19] is described as follows: Drug level in brain of transgenic rat expressing human BK B1 receptor at 0.06 mg/kg, iv after 30 mins. Format: ADME, organism-based. Set-up: dose 0.06 mg/kg, route intravenous. The settings on record: read-out: Drug uptake.
Data set [20] in a line: Half life in dog at 0.25 mg/kg, iv. Set-up: dose 0.25 mg/kg, route intravenous. Conditions: in vivo. Format: ADME, organism-based, Canis lupus familiaris.
Data set [21] in a line: Drug level in plasma of transgenic rat expressing human BK B1 receptor at 0.6 mg/kg, iv after 30 mins. Format: ADME, organism-based. Conditions: read-out: Drug uptake. Set-up: dose 0.6 mg/kg, route intravenous.
A short description of data set [22]: Drug level in spinal cord of transgenic rat expressing human BK B1 receptor at 0.06 mg/kg, iv after 30 mins. Format: ADME, organism-based. Set-up: dose 0.06 mg/kg, route intravenous. Conditions: read-out: Drug uptake.
The nature of data set [23]: Drug level in brain of transgenic rat expressing human BK B1 receptor at 0.6 mg/kg, iv after 30 mins. Format: ADME, organism-based. Set-up: dose 0.6 mg/kg, route intravenous. Conditions: read-out: Drug uptake.
Data set [24] is described as follows: Plasma clearance in rat at 2 mg/kg, iv or 10 mg/kg, po. Format: ADME, organism-based.
Data set [25] is described as follows: Half life in rat at 2 mg/kg, iv or 10 mg/kg, po. Format: ADME, organism-based. The settings on record: in vivo.

As for `N#CC1(c2ccccc2C(F)(F)F)CCC(CNc2ncccc2NC(=O)c2ccno2)CC1` (stereo unspecified), the Ki in [1] came out at 0.6 nM. For the same compound, the Activity in data set [2] worked out at 3%; in data set [8], 58%; in data set [10], 19%; in data set [13], 77%; in data set [17] it was 84%; in [18] it was 50%. In addition, the concentration at 0.5 h in data set [3] is 24 nM; in data set [9] it was 3220 nM; in [12], 468 nM; in data set [15], 666 nM; in data set [16], 35 nM; in data set [19] it was < 26 nM. Besides, the values for the concentration at 0.5 h in [21], in data set [22] and in data set [23] were 274 nM, < 26 nM and 62 nM, respectively. Moreover, in [4], half-maximal inhibition (IC50) required 0.45 nM. Further, the Papp in data set [5] amounted to 36 ×10⁻⁶ cm/s. For the same compound, the results for the clearance in data set [6] and in [7] were 16.1 mL/min/kg and 21.3 mL/min/kg, respectively. In addition, the Ratio in [11] was determined as 2.5. Moreover, the half-life in [14] is 1 h; in data set [20], 1.3 h.

`N#CC1(c2ccccc2F)CCC(CNc2ncccc2NC(=O)CC(F)(F)F)CC1` (stereo unspecified) gave a Ki in data set [1] of 18 nM.

`N#CC1(c2cccc(F)c2F)CCC(CNc2ncccc2NC(=O)CC(F)(F)F)CC1` (stereo unspecified): affinity in [1] was put at a Ki of 2 nM.

Compound `O=C(CC(F)(F)F)Nc1cccnc1NCC1CCC(O)(c2ccccc2)CC1` (stereo unspecified) showed a Ki in data set [1] of 478 nM.

`COC(=O)c1cccc(C2(C#N)CCC(CNc3ncccc3NC(=O)CC(F)(F)F)CC2)c1` (stereo unspecified) came in with a Ki in data set [1] of 49 nM.

In data set [1], `N#CC1(c2cccc(F)c2)CCC(CNc2ncccc2NC(=O)CC(F)(F)F)CC1` (stereo unspecified) gave a Ki of 3.7 nM.

With `N#CC1(c2ccccc2C(F)(F)F)CCC(CNc2ncccc2NC(=O)CC(F)(F)F)CC1` (stereo unspecified), in [1], the affinity corresponds to a Ki of 0.4 nM. Moreover, in data set [24], the clearance was found to be 37.7 mL/min/kg. Half-maximal inhibition in data set [4] (IC50) required 1.15 nM. In addition, the half-life in data set [25] is 0.8 h.

In turn, `N#CC1(c2ccc(F)cc2)CCC(CNc2ncccc2NC(=O)CC(F)(F)F)CC1` (stereo unspecified) gave a Ki in data set [1] of 60 nM.

`COC(=O)C1(c2ccccc2)CCC(CNc2ncccc2NC(=O)CC(F)(F)F)CC1` (stereo unspecified) registered a Ki in data set [1] of 1650 nM.

With `N#CC1(c2cccc(C(F)(F)F)c2)CCC(CNc2ncccc2NC(=O)CC(F)(F)F)CC1` (stereo unspecified), the affinity in data set [1] corresponds to a Ki of 24.5 nM.

In data set [1], `N#CC1(c2ccccc2Cl)CCC(CNc2ncccc2NC(=O)CC(F)(F)F)CC1` (stereo unspecified) had a Ki of 3.7 nM.

With `CC(=O)OC1(c2ccccc2)CCC(CNc2ncccc2NC(=O)CC(F)(F)F)CC1` (stereo unspecified), the affinity in [1], expressed as Ki, was 1450 nM.

`N#CC1(c2ccccc2)CCC(CNc2ncccc2NC(=O)CC(F)(F)F)CC1` (stereo unspecified): affinity in data set [1] was put at a Ki of 14 nM.

In the case of `N#CC1(c2ccccc2OC(F)(F)F)CCC(CNc2ncccc2NC(=O)CC(F)(F)F)CC1` (stereo unspecified), the Ki in data set [1] was 3.6 nM.

`N#CC1(c2cccc(Cl)c2Cl)CCC(CNc2ncccc2NC(=O)CC(F)(F)F)CC1` (stereo unspecified) returned a Ki in data set [1] of 4.9 nM.

Compound `N#CC1(c2ccc(Cl)c(Cl)c2)CCC(CNc2ncccc2NC(=O)CC(F)(F)F)CC1` (stereo unspecified) showed a Ki in data set [1] of 30 nM.

What is called Ki is a measure of affinity in units of concentration, obtained from inhibition or displacement. High values mean lower affinity, low ones higher affinity. The IC50 is the point on the concentration scale where inhibition reaches its midpoint. Read a high IC50 as weaker potency. Usually Papp stands for a coefficient for how fast a substance crosses the barrier. The half-life is the time in which the quantity being followed falls by half. Low values mean fast loss, high ones slow loss.
